# US20090181904A1, “METHOD FOR REGULATING NUTRIENT ABSORPTION WITH GINSENOSIDES” (priority 2005, published 2009)
# What was measured:
# Assay type in all cases: cell-based, human
# Caco2 cell monolayer = assay: Glucose absorption assay (transport across Caco2 monolayer in transwell, 14C-glucose); details: for Transport rate (glucose): 2 days pretreatment, 25 mM glucose
# Method: For glucose absorption assay, 0.3 mL (10^5 cell/ml) of Caco2 cells were seeded into the apical chamber of each transwell and the basolateral chamber was added with 1 ml of culture medium (as indicated above). Costar transwell inserts (No. 3414, Corning Incorporated, NY, USA) separate each well in 24-well plates into an apical chamber (defined as a chamber above the insert) and a basolateral chamber (defined as a chamber below the insert). The culture medium in each transwell was changed every 2 days in both of the apical and basolateral chambers. To ensure the integrity of tight junction of Caco2 monolayer membrane formed in the transwell, a Trans-Epithelial Electrical Resistance (TEER) assay was conducted using Millicell®-ERS (Millipore EVOM-6; World Precision Instrument, Sarasota, Fla., USA) to measure the TEER between apical and basolateral chambers of the transwell. As the measured TEER reached 300 to 450 Ωcm^2 with the presence of differentiated brush border on the […] side of the cell on the 14th to 21st day of the culture, the Caco2 monolayer was ready for the glucose absorption test. The TEER values were taken before, during, and after each experiment to justify consistency of the data collected.
# Glucose absorption was initiated by replacing the culture medium in the basolateral chamber with fresh glucose absorption buffer and the culture medium in the apical chamber with 0.2 mL of the glucose absorption buffer containing 2 μCi/ml of radioactive D-[^14C]-glucose (60 Ci/mmol, American Radiolabeled Chemicals, ARC, St. Louis, Mo., USA) and unlabeled cold glucose to give glucose at a final concentration of 25 mM. A series of five 10-μL samples were taken from the basolateral chamber at every 5 or 10 minute intervals. In order to maintain the constant buffer volume, same amount of sample buffer were added back to the basolateral chamber after withdrawn of each sample. The samples were transferred to the filter-bottomed UniFilter plates (Perkin-Elmer, Wellesley, Mass., USA) and dried in a vacuum oven at 37° C. The bottom of the UniFilter plate was sealed and 25 μL of the counting solution were added into each well. Adhesive plate sealers were used in place of the lids and radioactivity of each sample was counted using the microplate liquid scintillation counter (TopCount, Packard NXT, Packard BioScience Company, Meriden, Conn., USA). The effect of test compounds on glucose absorption was expressed as the nmoles of glucose accumulated in the basolateral chamber with respect to time in minutes (nmol/min). The glucose absorption rate was obtained by calculating the slope of the straight line from the time zero to the end point of the graphic data of each figure.
# Caco-2 cell monolayer = assay: Arginine absorption assay (transport across Caco-2 monolayer, 3H-arginine); details: for Transport rate (arginine): 10 mM L-arginine
# Method: In measuring transport of arginine across the Caco-2 cell monolayer, both sides of the transwells were washed with arginine incubation buffer consisting of: 137 mM NaCl, 10 mM Hepes, 0.3 mM NaH2PO4, 0.3 mM K2HPO4, 5.4 mM KCl, 2.8 mM CaCl2, 1 mM MgSO4, 10 mM glucose, adjusted to pH 7.4. Then, the cell layer was pre-incubated in the incubation buffer at 37° C. for 1 h. The volumes of incubation buffer were 0.2 mL and 0.9 mL in the apical and basolateral chambers, respectively. The cells were replaced with fresh incubation medium in both chambers prior to the transport experiment. The transport experiment was initiated by replacing the incubation solution on the apical side with solution containing 10 mM of L-arginine in which 0.125 μCi/mL of L-[^3H]-arginine was included. At designated time intervals, 10 μL-solution samples were removed from the basolateral side and radioactivity of each sample was counted using a microplate liquid scintillation counter (TopCount, Packard NXT). During the experiment, when a 10 μL-solution sample was removed from the basolateral side every time, 10 μL buffer was supplemented to keep the volume constant. The uptake of [^3H]-mannitol was used to correct for nonspecific transport of molecules across the monolayer membrane. Results were expressed as the nanomoles of arginine transport across the Caco-2 cell monolayers with respect to time in minutes (nmol/min).
# Caco2 cells = assay: Folate uptake assay (3H-folate uptake in Caco2 cells); details: compound 0.1 μM; for Transport rate (folate uptake): 2 days pretreatment, 5 μM folate, pH 6.0
# Method: The Caco2 cells were subjected to folate uptake test in a manner similar to that described in the glucose uptake assay in Example 1 above. In the folate uptake test, the Caco2 cells were pretreated with the culture medium containing 5% FBS and purified ginsenosides at a concentration of […] for 2 days before the cells were cultured in a folate uptake buffer (Hank's balanced salt solution, supplemented with 0.14 g/L CaCl2, 0.1 g/L MgCl2, and 0.1 g/L MgSO4, pH 6.0) for 1 hour. The buffer was then aspirated, and uptake was initiated by adding 0.2 mL of fresh folate uptake buffer containing 2 μCi/mL radioactive folate (3,5,7,9-^3H-folic acid, 25 mCi/mmol, ARC) and cold, unlabeled folate giving a final folate concentration of 5 μM. Folate uptake was terminated by removing the uptake buffer at designated time intervals. The cells were then washed three times with ice-cold PBS and lysed by adding 0.2 mL of 0.2 N NaOH, followed by incubating at 65° C. for 20 min. Intracellular uptake of ^3H-folate was determined by transferring 20 μL of the cell lysate to the filter-bottomed UniFilter plates (Perkin-Elmer) and counting as described previously in Example 1. The amount of folate accumulated in the cells was calculated and normalized to protein concentration, and uptake rate was expressed as picomoles of folate per minutes per milligram of cell protein (pmol/min/mg). Protein concentration was determined by a standard Bicinchoninic acid (BCA) protein assay as described above.
SMILES,"Percentage (glucose transport, control = 100) (Caco2 cell monolayer; compound 0.01 μM)",Transport rate (glucose) (Caco2 cell monolayer; compound 0.01 μM),"Percentage (glucose transport, control = 100) (Caco2 cell monolayer; compound 0.1 μM)",Transport rate (glucose) (Caco2 cell monolayer; compound 0.1 μM),"Percentage (glucose transport, control = 100) (Caco2 cell monolayer; compound 1 μM)",Transport rate (glucose) (Caco2 cell monolayer; compound 1 μM),"Percentage (arginine transport, control = 100) (Caco-2 cell monolayer; compound 0.01 μM)",Transport rate (arginine) (Caco-2 cell monolayer; compound 0.01 μM),"Percentage (arginine transport, control = 100) (Caco-2 cell monolayer; compound 0.1 μM)",Transport rate (arginine) (Caco-2 cell monolayer; compound 0.1 μM),"Percentage (arginine transport, control = 100) (Caco-2 cell monolayer; compound 1 μM)",Transport rate (arginine) (Caco-2 cell monolayer; compound 1 μM),"glucose transport rate (in words, FIG. 1) (Caco2 cell monolayer; compound 0.1 μM to 5 μM)","Percentage (folate uptake, control = 100) (Caco2 cells)","folate uptake versus non-treated control (in words, FIG. 5) (Caco2 cells)",Transport rate (folate uptake) (Caco2 cells),effect on glucose absorption (in words) (Caco2 cell monolayer)
"CC(C)=CCC[C@](C)(O[C@@H]1O[C@H](CO)[C@@H](O)[C@H](O)[C@H]1O)[C@H]1CC[C@]2(C)[C@@H]1[C@H](O)C[C@@H]1[C@@]3(C)CC[C@H](O)C(C)(C)[C@@H]3[C@@H](O)C[C@]12C [GF1, ginsenoside F1]",141.12%,3.0783 ± 0.9550 nmol/min,153.80%,3.3551 ± 0.3248 nmol/min,150.65%,3.2862 ± 0.3429 nmol/min,126.74%,13.5425 ± 1.8630 nmol/min,118.73%,12.6865 ± 0.2964 nmol/min,97.06%,10.3711 ± 0.6574 nmol/min,–,–,–,–,–
"CC(C)=CCC[C@](C)(O[C@@H]1O[C@H](CO[C@@H]2O[C@H](CO)[C@@H](O)[C@H](O)[C@H]2O)[C@@H](O)[C@H](O)[C@H]1O)[C@H]1CC[C@]2(C)[C@@H]1[C@H](O)C[C@@H]1[C@@]3(C)CC[C@H](O[C@@H]4O[C@H](CO)[C@@H](O)[C@H](O)[C@H]4O[C@@H]4O[C@H](CO)[C@@H](O)[C@H](O)[C@H]4O)C(C)(C)[C@@H]3CC[C@]12C [Rb1, ginsenoside Rb1]",102.26%,2.2306 ± 0.1034 nmol/min,128.85%,2.8107 ± 0.1982 nmol/min,157.01%,3.4250 ± 0.4805 nmol/min,90.30%,9.6487 ± 0.9377 nmol/min,111.08%,11.8699 ± 1.9300 nmol/min,151.12%,16.1484 ± 0.6228 nmol/min,increased,108.72%,increased folate uptake,1.8710 ± 0.0320 pmol/mg/min,–
"CC(C)=CCC[C@](C)(O)[C@H]1CC[C@]2(C)[C@@H]1[C@H](O)C[C@@H]1[C@@]3(C)CC[C@H](O)C(C)(C)[C@@H]3[C@@H](O)C[C@]12C [Rga, 20(S)-protopanaxatriol]",116.69%,2.5454 ± 0.7808 nmol/min,167.15%,3.6462 ± 0.4105 nmol/min,104.01%,2.2689 ± 0.2598 nmol/min,118.16%,12.6265 ± 0.9875 nmol/min,100.66%,10.7555 ± 0.4532 nmol/min,95.38%,10.1920 ± 1.2390 nmol/min,–,–,–,–,–
"CC(C)=CCC[C@](C)(O)C1CC[C@]2(C)C1C(O)CC1[C@@]3(C)CCC(O)C(C)(C)C3C(OC3OC(CO)C(O)C(O)C3O)C[C@]12C (some centres unmarked) [Rh1, ginsenoside Rh1]",62.20%,1.3568 ± 0.1090 nmol/min,74.86%,1.6329 ± 0.1976 nmol/min,61.02%,1.3310 ± 0.8356 nmol/min,105.56%,11.2792 ± 0.7768 nmol/min,109.13%,11.6615 ± 0.8085 nmol/min,134.02%,14.3209 ± 0.7418 nmol/min,–,49.36%,decreased,0.8494 ± 0.453 pmol/mg/min,inhibitory effect
